The test system of series [1] is PBMC. Description: Human PBMC IL-2 assay. The series is classed as cell-based. Conditions: anti-CD3/CD28 stimulation overnight, IL-2 level. An outline of the steps:
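Healthy-donor frozen PBMC were thawed, rested 4 h at 37 °C and plated at ~200,000 cells/well. Cells were preincubated 60 min at 37 °C with compound solution (10 uM to 0.6 nM, 8 points, 4-fold, as added), then stimulated overnight with anti-CD3/CD28. Supernatant IL-2 was quantified by immunoassay kit and plotted against log compound concentration.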

For series [2], the system named is Jurkat cells. Description: Jurkat IL-2 assay. The series is classed as cell-based. The note with it: Homo sapiens, anti-CD3/CD28 stimulation overnight, IL-2 level. An outline of the steps: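 Cells in RPMI-1640 with 10% FBS received compound solution (5 uM to 2.3 nM, 8 points, 3-fold dilution) for 60 minutes at 37° C. They were then stimulated overnight at 37° C. with anti-CD3/CD28 antibody. IL-2 in the supernatant was quantified by immunoassay kit and plotted against log compound concentration.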

Series [3] can be described thus: Human microsomal clearance assay. Format: in vitro ADME. Conditions: pH 7.4; for CLint scaled at 1 μM: human, liver microsomes; for half-life at 1 μM: human liver microsomes 0.5 mg/mL, 1 uM compound. The method, then: This study aimed to assess the metabolic stability of a compound in human liver microsomes using a microsomal clearance assay.
A mixture containing 100 mM potassium phosphate, pH 7.4, 0.5 mg/mL liver microsomes, 2 mM NADPH, and 1 μM compound were prepared and added to 96-well plate. The plates were then incubated at 37 ? for different time points (0, 5, 15, 30, 45 minutes) and the reaction was stopped with acetonitrile solution containing an internal standard. The samples were then analyzed by LC/MS/MS to determine how much of the compound remained at each time point. The elimination rate constant and half-life were calculated from the data, and the in vitro intrinsic clearance (CLint) was determined as follows: […]
(Liver microsomes are vesicles of endoplasmic reticulum, rich in cytochrome P450 enzymes.)

The subject of series [4] is whole blood from male C57BL6 mice. Description: Mouse whole blood IFN-gamma assay. Conditions: anti-mouse CD3/CD28 0.6 ug/mL, 20 hours. The series is classed as cell-based. The method, then:
The whole blood from male C57BL6 mice (6-8 weeks old, Beijing Vital River Laboratory Animal Technology Co., Ltd.) was collected, pooled and dispensed at 200 uL per well in a 96-well plate. The blood was treated with compounds for one hour at 37° C. in a humidified 5% CO2 incubator. The blood was then stimulated with anti-mouse CD3 and anti-mouse CD28 antibody (BioLegend Cat #100340, #102116) at a final concentration of 0.6 ug/mL for 20 hours at 37° C. in a humidified 5% CO2 incubator. The blood was spun down, IFN-gamma in the supernatants was measured using ELISA kit (Excellbio Cat #EM002-96, #EM007-96) according the manufacture's instruction.

Series [5] has as its target DGKz (Homo sapiens (Human), UniProt Q13574). Description: DGK ADP-Glo kinase assay (DGKz). The series is classed as biochemical. The note with it: 5 nM DGKz, 15 uM ATP. The method, then: Luminescence was recorded using an Tecan SPARK microplate reader.
On the technique in general: In ADP-Glo the light output rises with the ADP produced.

Series [6] addresses T1, DGKa (Homo sapiens (Human), UniProt P23743).
Series [7] has as its target T1, DGKa. Description: biochemical.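 Note: biochemical DGK kinase assay, ADP-Glo luminescence from ADP made by phosphorylating 1,2-dioleoyl-sn-glycerol, 20 min compound preincubation then 40 min reaction at 25 °C, 1% DMSO control.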

Like-named read-outs stand apart in the source and are kept apart here.

By EC50 is commonly meant the concentration giving half of the maximal effect. Higher therefore signals weaker potency. What is called CLint scaled is a measure of how fast metabolising enzymes remove a compound, apart from limits set by blood flow. The low end stands for greater metabolic stability, the high end for faster metabolism. A word on the half-life: it is how long it takes for the measured level to halve. Read a high half-life as slow loss. One may read the IC50 as the concentration needed to halve the response being measured. Higher therefore signals a need for much substance.

DGKz, sequence (Q13574 whole entry): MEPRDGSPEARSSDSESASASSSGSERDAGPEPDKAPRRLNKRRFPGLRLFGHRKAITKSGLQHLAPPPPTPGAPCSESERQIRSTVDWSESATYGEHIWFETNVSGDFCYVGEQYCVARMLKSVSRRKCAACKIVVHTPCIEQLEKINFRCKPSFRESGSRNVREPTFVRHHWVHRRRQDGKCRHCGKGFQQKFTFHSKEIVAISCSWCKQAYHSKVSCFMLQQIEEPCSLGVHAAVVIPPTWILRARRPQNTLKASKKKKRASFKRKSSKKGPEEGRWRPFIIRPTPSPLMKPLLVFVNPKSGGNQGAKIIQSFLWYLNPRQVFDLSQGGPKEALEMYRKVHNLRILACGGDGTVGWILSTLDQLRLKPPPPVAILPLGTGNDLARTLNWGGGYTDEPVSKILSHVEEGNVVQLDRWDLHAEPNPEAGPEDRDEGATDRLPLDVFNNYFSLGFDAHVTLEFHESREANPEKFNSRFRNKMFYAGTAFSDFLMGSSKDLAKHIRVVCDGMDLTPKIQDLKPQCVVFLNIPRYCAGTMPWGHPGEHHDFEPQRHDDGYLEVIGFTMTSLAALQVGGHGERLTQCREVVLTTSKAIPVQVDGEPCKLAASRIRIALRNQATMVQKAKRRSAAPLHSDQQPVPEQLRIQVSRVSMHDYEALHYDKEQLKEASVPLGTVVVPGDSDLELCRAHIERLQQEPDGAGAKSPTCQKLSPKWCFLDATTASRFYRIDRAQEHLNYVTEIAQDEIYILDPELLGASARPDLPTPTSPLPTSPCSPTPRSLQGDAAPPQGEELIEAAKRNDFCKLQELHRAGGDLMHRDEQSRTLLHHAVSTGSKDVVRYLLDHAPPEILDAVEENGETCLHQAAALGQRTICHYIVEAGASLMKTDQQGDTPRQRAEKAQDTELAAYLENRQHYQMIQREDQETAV
T1 sequence (P23743 whole entry): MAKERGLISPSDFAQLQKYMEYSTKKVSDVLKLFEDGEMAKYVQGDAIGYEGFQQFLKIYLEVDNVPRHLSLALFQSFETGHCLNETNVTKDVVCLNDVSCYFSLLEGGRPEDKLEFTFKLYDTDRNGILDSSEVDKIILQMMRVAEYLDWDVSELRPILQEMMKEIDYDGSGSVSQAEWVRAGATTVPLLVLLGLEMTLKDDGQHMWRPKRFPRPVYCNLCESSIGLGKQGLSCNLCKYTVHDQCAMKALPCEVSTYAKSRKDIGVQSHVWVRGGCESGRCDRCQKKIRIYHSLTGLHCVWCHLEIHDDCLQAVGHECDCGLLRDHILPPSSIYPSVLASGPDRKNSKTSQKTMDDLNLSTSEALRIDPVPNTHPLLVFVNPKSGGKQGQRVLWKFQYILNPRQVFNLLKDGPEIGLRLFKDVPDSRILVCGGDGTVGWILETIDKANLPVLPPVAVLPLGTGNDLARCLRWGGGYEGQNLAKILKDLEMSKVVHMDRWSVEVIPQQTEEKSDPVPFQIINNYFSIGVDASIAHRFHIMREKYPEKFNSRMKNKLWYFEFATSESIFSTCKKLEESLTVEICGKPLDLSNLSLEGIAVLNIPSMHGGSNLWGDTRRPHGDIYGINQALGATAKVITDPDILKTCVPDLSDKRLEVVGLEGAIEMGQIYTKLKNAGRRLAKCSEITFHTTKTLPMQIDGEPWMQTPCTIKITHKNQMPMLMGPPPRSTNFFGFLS

Take `CC[C@@H]1CN2c3c(c(=O)n(C)c4ccc(C#N)nc34)OC[C@@H]2CN1[C@@H](CC)c1ccc(S(F)(F)(F)(F)F)cc1` (stereo in doubt) [Compound 151]: the EC50 is 82 nM in series [1] and 32 nM in series [2]. This compound also registered an intrinsic clearance (CLint scaled) at 1 μM in series [3] of 4.1 mL/min/kg. This compound yielded a half-life at 1 μM in series [3] of 7.13 h.
Regarding `CC[C@@H]1CN2c3c(c(=O)n(C)c4ccc(C#N)nc34)OC[C@@H]2CN1[C@@H](CC)c1ccc(F)c(Cl)c1` (stereo in doubt) [Compound 197], the 50% effective concentration (EC50) was determined as 78 nM in series [1], 39 nM in series [2] and 312 nM in series [4].
Take `C[C@@H]1CN2c3c(c(=O)n(C)c4ccc(C#N)nc34)OC[C@@H]2CN1[C@@H](C)c1ccc(C(F)(F)F)cc1` (stereo in doubt) [Compound 223]: the EC50 stood at 47 nM in series [1], 70 nM in series [2] and 679 nM in series [4]. Moreover, the intrinsic clearance (CLint scaled) at 1 μM in series [3] was found to be 18.3 mL/min/kg. In series [3], this compound yielded a half-life at 1 μM of 1.58 h.
In the case of `[2H]C([2H])([2H])n1c(=O)c2c(c3nc(C#N)ccc31)N1C[C@@H](CC)N([C@@H](CC)c3ccc(C(F)(F)F)cc3)C[C@H]1CO2` (stereo in doubt) [Compound 251], the EC50 in series [1] was determined as 50 nM; in series [2], 51 nM. Moreover, in series [3], the intrinsic metabolic clearance (CLint scaled) at 1 μM came out at 8.6 mL/min/kg. In series [3], this compound returned a half-life at 1 μM of 3.38 h.
For the compound `Cn1c(=O)nc(N2CCC(Oc3ccc(OC(F)(F)F)cc3)CC2)c2nc(C#N)ccc21` [Compound 5], the concentration for half-maximal inhibition (IC50) is 126 nM in series [5] and 427 nM in series [6]. Further, the EC50 in series [1] turned out to be 728 nM.
Consider `Cn1c(=O)c(C(N)=O)c(N2CCC3(CCN(c4ccc(OC(F)(F)F)cc4)C3)CC2)c2nc(C#N)ccc21` [Compound 6], for which the concentration for half-maximal inhibition (IC50) in series [5] came out at 775 nM; in series [6], 212 nM. This compound had a 50% effective concentration (EC50) in series [1] of 1800 nM.
With `CC[C@H]1CN([C@@H](CC)c2ccc(S(F)(F)(F)(F)F)cc2)[C@H](CC)CN1c1nc(=O)n(C)c2ccc(C#N)nc12` [Compound 28], the IC50 was 50 nM in series [5] and 12 nM in series [7]. Also, in series [3], the CLint scaled at 1 μM is 7.7 mL/min/kg. The same compound came in with a half-life at 1 μM in series [3] of 3.75 h.
`Cn1c(=O)nc(N2CCC3(CC2)CC(c2ccc(OC(F)(F)F)cc2)=NO3)c2nc(C#N)ccc21` [Compound 31] returned a half-maximal inhibitory concentration (IC50) in series [5] of 24 nM. Besides, in series [3], the intrinsic metabolic clearance (CLint scaled) at 1 μM is 5.1 mL/min/kg and the half-life at 1 μM was 5.7 h. This compound displayed a 50% inhibitory concentration (IC50) in series [6] of 20 nM.
For the compound `CC[C@H]1CN([C@@H](CC)c2ccc(C(F)(F)F)cc2)[C@H](CC)CN1c1nc2nncn2c2ccc(C#N)nc12` [Compound 34], the values for the IC50 in series [5] and in series [6] were 42 nM and 16 nM, respectively. Moreover, the results for the half-maximal effective concentration (EC50) in series [1], in series [2] and in series [4] were 44 nM, 67 nM and 335 nM, respectively.
In series [3], `Cn1c(=O)nc(N2CCC3(CC2)COC(c2ccc(OC(F)(F)F)cc2)=N3)c2nc(C#N)ccc21` [Compound 36] showed a CLint scaled at 1 μM of 2.7 mL/min/kg and a half-life at 1 μM of 10.9 h.
For the compound `Cn1c(=O)nc(N2CCC3(CC2)COC(c2ccc(OC(F)(F)F)cc2)=N3)c2nc(Cl)ccc21` [Compound 37], the values for the concentration for half-maximal inhibition (IC50) in series [5] and in series [6] were 475 nM and 17 nM, respectively.
For `Cn1c(=O)nc(N2CCCc3c(C#CC4CC4)cccc32)c2nc(C#N)ccc21` [Compound 42], in that order: 311 nM and 3 nM.
For the compound `CN(c1cccc(C#CC2CC2)c1)c1nc(=O)n(C)c2ccc(C#N)nc12` [Compound 46], the IC50 in series [5] came out at 324 nM; in series [6] it was 5 nM.
For `Cn1c(=O)nc(N2CCC3(CC2)CC(c2cccc(C(F)(F)F)c2)=NO3)c2nc(C#N)ccc21` [Compound 47], in that order: 36 nM and 12 nM.
`N#Cc1ccc2c(n1)c(N1CCC3(CC1)CC(c1ccc(C(F)(F)F)cc1)=NO3)nc1nncn12` [Compound 53]: the results for the half-maximal inhibitory concentration (IC50) in series [5] and in series [6] were 185 nM and 85 nM, respectively.
Taken in the same sequence, the figures for `N#Cc1ccc2c(n1)c(N1CCC3(CC1)CC(c1ccc(SC(F)(F)F)cc1)=NO3)nc1nncn12` [Compound 54] were 248 nM and 29 nM.
In the case of `CC[C@H]1CN(C(c2ccc(S(F)(F)(F)(F)F)cc2)c2nc(C3CC3)no2)[C@H](CC)CN1c1nc(=O)n(C)c2ccc(C#N)nc12` (stereo partly shown) [Compound 64], the 50% inhibitory concentration (IC50) was found to be 55 nM in series [5] and 10 nM in series [6].
As to `CC[C@@H]1CN(c2nc(=O)n(C)c3ccc(C#N)nc23)[C@@H](C)CN1[C@@H](c1ccc(F)cc1)c1ccc(SC(F)(F)F)cn1` [Compound 72], the figures for the IC50 in series [5] and in series [6] were 33 nM and 13 nM, respectively.
Taken in the same sequence, the figures for `CC[C@H]1CN(C(CO)c2ccc(S(F)(F)(F)(F)F)cc2)[C@H](CC)CN1c1nc(=O)n(C)c2ccc(C#N)nc12` (stereo partly shown) [Compound 77] were 81 nM and 32 nM.
Turning to `CC[C@H]1CN(C(COC)c2ccc(S(F)(F)(F)(F)F)cc2)[C@H](CC)CN1c1nc(=O)n(C)c2ccc(C#N)nc12` (stereo partly shown) [Compound 78], the IC50 is 41 nM in series [5] and 19 nM in series [6].
Taken in the same sequence, the figures for `CC[C@@H]1CN(c2nc3nncn3c3ccc(C#N)nc23)[C@@H](CC)CN1C(=O)Nc1ccc(C(F)(F)F)cc1` [Compound 95] were 303 nM and 58 nM.
Turning to `CC[C@H]1CN([C@H](c2ccc(S(F)(F)(F)(F)F)cc2)c2nc(C3CC3)cs2)[C@H](CC)CN1c1nc(=O)n(C)c2ccc(C#N)nc12` [Compound 98], the IC50 was found to be 40 nM in series [5] and 10 nM in series [6].
Consider `CC[C@H]1CN([C@@H](c2ccc(S(F)(F)(F)(F)F)cc2)c2nc(C3CC3)cs2)[C@H](CC)CN1c1nc(=O)n(C)c2ccc(C#N)nc12` [Compound 99], for which the IC50 in series [5] was 22 nM; in series [6], 4 nM.
Take `CCC(c1ccc(C23CC(C2)C3)nc1)N1C[C@H](CC)N(c2nc3nncn3c3ccc(C#N)nc23)C[C@H]1CC` (stereo partly shown) [Compound 104]: the 50% inhibitory concentration (IC50) in series [5] turned out to be 41 nM; in series [6], 18 nM.
On to `CC[C@@H]1CN2c3c(c(=O)n(C)c4ccc(C#N)nc34)OC[C@H]2CN1[C@@H](CC)c1ccc(C(F)(F)F)cc1` [Compound 107], for which the IC50 came out at 136 nM in series [5] and 9 nM in series [6].
For `CC[C@@H]1CN2c3c(c(=O)n(C)c4ccc(C#N)nc34)OC[C@H]2CN1[C@H](CC)c1ccc(C(F)(F)F)cc1` [Compound 108], in that order: 242 nM and 26 nM.
For `CC[C@H]1CN([C@@H](CC)c2ccc(C(F)(F)F)cc2)[C@H](CC)CN1c1nc2nccn2c2ccc(C#N)nc12` [Compound 109], in that order: 71 nM and 6 nM.
`CC[C@H]1CN([C@H](CC)c2ccc(C(F)(F)F)cc2)[C@H](CC)CN1c1nc2nccn2c2ccc(C#N)nc12` [Compound 110]: the values for the IC50 in series [5] and in series [6] were 117 nM and 6 nM, respectively.
As for `CC[C@H]1CN([C@H]2CCCCc3cc(C(F)(F)F)ccc32)[C@H](CC)CN1c1nc2nncn2c2ccc(C#N)nc12` [Compound 113], the IC50 in series [5] was determined as 161 nM; in series [6] it was 44 nM.
Take `CC[C@H]1CN([C@@H]2CCCCc3cc(C(F)(F)F)ccc32)[C@H](CC)CN1c1nc2nncn2c2ccc(C#N)nc12` [Compound 114]: the IC50 was determined as 4 nM in series [5] and 30 nM in series [6].
On to `CC[C@H]1CN([C@@H](CC)c2nc(C3CC3)no2)[C@H](CC)CN1c1nc2nncn2c2ccc(C#N)nc12` [Compound 119], for which the figures for the IC50 in series [5] and in series [6] were 21 nM and 3 nM, respectively.
Turning to `CC[C@H]1CN([C@H](CC)c2nc(C3CC3)no2)[C@H](CC)CN1c1nc2nncn2c2ccc(C#N)nc12` [Compound 120], the IC50 in series [5] came out at 352 nM; in series [6], 10 nM.
As to `CC[C@@H]1CN2c3c(c(=O)n(C)c4ccc(C#N)nc34)CC[C@@H]2CN1[C@H](CC)c1ccc(C(F)(F)F)cc1` [Compound 332], in series [1], the midpoint of the response, the EC50, lay at 64 nM. The compound further displayed a concentration giving a half-maximal response (EC50) in series [2] of 130 nM. In series [3], this compound came in with an intrinsic metabolic clearance (CLint scaled) at 1 μM of 6.9 mL/min/kg and a half-life at 1 μM of 4.23 h.
As for `CC[C@@H]1CN2c3c(c4nncn4c4ccc(C#N)nc34)OC[C@@H]2CN1[C@@H](CC)c1ccc(C(F)(F)F)cc1` [Compound 334], the results for the EC50 in series [1], in series [2] and in series [4] were 31 nM, 26 nM and 241 nM, respectively.

These data come from US20250223301A1, “KINASE INHIBITORS, PREPARATION METHODS AND USES THEREOF” (InventisBio Co., Ltd., priority 2022, published 2025).
